molecular target: T1, STAT6 (Homo sapiens, UniProt P42226); assay: STAT6 Degrader Assay (HiBiT based, HeLa LgBiT clone 4.14 cells); type: cell-based; settings: HeLa; maximal STAT6 degradation
T1 construct: These cells express endogenous STAT6; host or cells: HeLa LgBiT clone 4.14 (CRISPR knock-in of HiBiT into the endogenous STAT6 gene)
T1 sequence (P42226 1-847): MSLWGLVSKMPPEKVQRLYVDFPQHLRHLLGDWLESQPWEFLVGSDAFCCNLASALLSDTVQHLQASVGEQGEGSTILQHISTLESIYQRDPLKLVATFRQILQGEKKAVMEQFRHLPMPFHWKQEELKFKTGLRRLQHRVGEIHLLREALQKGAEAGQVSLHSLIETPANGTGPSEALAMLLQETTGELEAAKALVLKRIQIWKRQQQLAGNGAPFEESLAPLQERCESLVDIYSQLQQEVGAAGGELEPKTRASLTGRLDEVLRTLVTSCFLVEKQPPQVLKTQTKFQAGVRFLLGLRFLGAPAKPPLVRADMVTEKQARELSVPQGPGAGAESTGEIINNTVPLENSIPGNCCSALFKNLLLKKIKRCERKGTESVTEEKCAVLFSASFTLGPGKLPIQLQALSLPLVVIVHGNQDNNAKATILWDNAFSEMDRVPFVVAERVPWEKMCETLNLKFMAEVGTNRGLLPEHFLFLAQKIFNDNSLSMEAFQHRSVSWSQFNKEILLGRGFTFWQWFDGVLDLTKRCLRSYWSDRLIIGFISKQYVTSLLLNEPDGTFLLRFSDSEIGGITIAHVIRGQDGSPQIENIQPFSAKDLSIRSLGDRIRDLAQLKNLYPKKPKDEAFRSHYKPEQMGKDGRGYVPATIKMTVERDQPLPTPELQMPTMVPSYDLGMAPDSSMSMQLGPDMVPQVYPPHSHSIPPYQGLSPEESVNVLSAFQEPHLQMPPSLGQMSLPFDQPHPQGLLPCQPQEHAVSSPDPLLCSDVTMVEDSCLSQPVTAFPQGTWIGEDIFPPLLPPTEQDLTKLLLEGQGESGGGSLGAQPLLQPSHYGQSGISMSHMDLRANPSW
Protocol: This was a HiBit based assay. A HeLa cell line stably transfected with a small protein, LgBit (Large Bit) was obtained from Promega. These cells express endogenous STAT6. A small 11 amino acid gene sequence (HiBiT) was inserted in the STAT6 gene using CRISPR technology. Once STAT6 protein is expressed in the cells, the HiBiT sequence will bind the LgBit in the cells resulting in a functional NanoBiT protein, giving a luminescent tag to STAT6. Single cell clones were prepared and the clone 4.14 was selected for the assay based on that clone showing high luminescence, high STAT6 phosphorylation upon stimulation with IL-4, and inhibition of luminescence when cells were treated with STAT6 siRNA. HeLa LgBiT clone 4.14 cells were suspended in DMEM with 10% FCS, 1% Pen/Strep, Na-pyrovate and Hygromycin B, at a concentration of 1.25*105 cells pr mL. 5000 cells were added pr well of a 384 well plate and 20 nL of compound was added by Echo® liquid handler. NN6394A (terfenadine, a toxic compound) was added to control wells at 50 μM concentration to establish the assay window. In these wells the cells are dead which equals 100% degradation of STAT6. After 4-24 h of incubation at 37° C. under 5% CO2/95% air, 5 μL substrate (Nano-GLO®) was added to the wells and the plates were centrifuged and incubated for 0.5 h. The luminescence in the wells as a measure of non-degraded STAT6 was measured in a plate reader (BMG Pherastar FSX). The measured DC50 (in nM) was determined.

Emax [%] | SMILES
60 to 70 | Cc1cc(C(=O)N(C)c2ccc(C3CCN(c4ccc(NC5CCC(=O)NC5=O)cc4F)CC3)cc2)cc(F)c1C1=CCN([C@H](C)c2cc3c(-n4ccc5[nH]ncc5c4=O)ccnc3n2C)CC1 (stereo partly drawn) [Example 2g133, N-(4-(1-(4-((2,6-dioxopiperi-din-3-yl)amino)-2-fluoro-phenyl)piperidin-4-yl)phen-yl)-3-fluoro-N,5-dimethyl-4-(1-((R)-1-(1-methyl-4-(4-oxo-1,4-dihydro-5H-pyrazolo[4,3-c]pyridin-5-yl)-1H-pyrrolo [2,3-b]pyridin-2-yl)ethyl)-1,2,3,6-tetrahydropyridin-4-yl)benzamide]
50 to 60 | Cc1cc(C(=O)N(C)c2ccc(C3CCN(c4ccc(NC5CCC(=O)NC5=O)cc4F)CC3)cc2)cc(F)c1C1=CCN([C@H](C)c2cc3c(-n4ccc5[nH]ccc5c4=O)ccnc3n2C)CC1 (stereo partly drawn) [Example 2g134, N-(4-(1-(4-((2,6-dioxopiper-idin-3-yl)amino)-2-fluoro-phenyl)piperidin-4-yl)phen-yl)-3-fluoro-N,5-dimethyl-4-(1-((R)-1-(1-methyl-4-(4-oxo-1,4-dihydro-5H-pyrrolo[3,2-c]pyridin-5-yl)-1H-pyrrolo [2,3-b]pyridin-2-yl)ethyl)-1,2,3,6-tetrahydropyridin-4-yl)benzamide]

system: Eotaxin-3 (CCL26) release; assay: Human Whole Blood Eotaxin-3 Assay (IL-4 stimulated); type: cell-based; settings: Homo sapiens; geometric mean across assay runs and compound batches; EC50 provided for test compounds with >80% Emax
Protocol: This was a human whole blood assay using recombinant human Interleukin 4 to stimulate the blood and measuring the ability of the test compounds to inhibit eotaxin-3 release. The biological activities of the test compounds have been tested in human whole blood stimulated with IL-4 measuring Eotaxin-3 release. The test compounds were added to 384 well clear flat-bottom plate in a 4-fold serial dilution in triplicates using a liquid handler. Human whole blood stabilized in lithium-heparin tubes was added in a volume of 65 μL per well, resulting in a final DMSO concentration of 0.5%. The plate is incubated for 2 h at 37° C. under 5% CO2/95% air. Subsequently, 5 μL of recombinant human IL-4 (R&D Systems, cat #204-ILB) was added to the wells to a final concentration of 400 pM. The plate was incubated for 48 h at 37° C. under 5% CO2/95% air. The plate was spun down for 10 minutes at 500×g and 20 μL supernatant was harvested and transferred to a 384 well v-bottom plate using a liquid handler and stored at −20° C. until further analysis. 10 μL supernatant was used to measure the level of Eotaxin-3 (CCL26) using Human Eotaxin-3 MSD kit from Mesocsale (Cat #K251UEK-4). The assay was performed according to the manufacture instructions.

SMILES | EC50 [µM]
CNc1ccn(-c2ccnc3c2cc([C@H](C)N2CC=C(c4c(C)cc(C(=O)N5CCC(CN6CCN(c7ncc(N[C@@H]8CCC(=O)NC8=O)cc7F)C[C@H]6C)CC5)cc4F)CC2)n3C)c(=O)c1 (single isomer, unassigned) [Example 2g115] | 0.0095
CNc1cc(=O)n(-c2ccnc3c2cc([C@@H](C)N2CC=C(c4c(F)cc(C(=O)N5CCn6nc(CN7CCC(c8ccc(NC9CCC(=O)NC9=O)cc8F)CC7)cc6C5)cc4F)CC2)n3C)cc1F (stereo in doubt) [Example 2g2, 3-((4-(1-((5-(3,5-difluoro-4-(1-((R)-1-(4-(5-fluoro-4-(methylamino)-2-oxopyridin-1(2H)-yl)-1-methyl-1H-pyrrolo[2,3-b]pyridin-2-yl)-ethyl)-1,2,3,6-tetrahydro-pyridin-4-yl)benzoyl)-4,5,6,7-tetrahydropyrazolo[1,5-a]pyrazin-2-yl)methyl)piperi-din-4-yl)-3-fluorophenyl)-amino)piperidine-2,6-dione] | 0.119
CNc1nc(=O)n(-c2ccnc3c2cc(CN2CCC(c4c(F)cc(C(=O)N5CCn6nc(CN7CCC(c8ccc(NC9CCC(=O)NC9=O)c(OC)c8)CC7)cc6C5)cc4F)CC2)n3C)cc1F (centres unmarked) [Example 2c50, 3-((4-(1-((5-(3,5-difluoro-4-(1-((4-(5-fluoro-4-(methyl-amino)-2-oxopyrimidin-1(2H)-yl)-1-methyl-1H-pyr-rolo[2,3-b]pyridin-2-yl)meth-yl)piperidin-4-yl)benzoyl)-4,5,6,7-tetrahydropyrazolo-[1,5-a]pyrazin-2-yl)methyl)-piperidin-4-yl)-2-methoxy-phenyl)amino)piperidine-2,6-dione] | 0.0187

More lines, now with the values ahead:

EC50 [µM] | SMILES
0.173 | CNc1cc(=O)n(-c2ccnc3c2cc(CN2CC=C(c4c(F)cc(C(=O)N5CCC(CN6CCN(c7ccc(N[C@H]8CCC(=O)NC8=O)cc7F)CC6)CC5)cc4F)CC2)n3C)cc1F (single isomer, unassigned) [Example 2g66]
0.0994 | CNc1cc(=O)n(-c2ccnc3c2cc(CN2CC=C(c4c(F)cc(C(=O)N5CCC(CN6CCN(c7ccc(N[C@@H]8CCC(=O)NC8=O)cc7F)CC6)CC5)cc4F)CC2)n3C)cc1F (single isomer, unassigned) [Example 2g67]
0.0087 | CNc1ccn(-c2ccnc3c2cc([C@H](C)N2CC=C(c4c(F)cc(C(=O)N5CCC(CN6CCN(c7ccc(N[C@@H]8CCC(=O)NC8=O)cc7F)CC6)CC5)cc4F)CC2)n3C)c(=O)c1 (single isomer, unassigned) [Example 2g105]

— patent publication US20250320205A1, “STAT6 DEGRADERS” (Gilead Sciences, Inc., priority 2024, published 2025)
